Measurements from article PMC3142157, “Sensitive and Specific Fluorescent Probes for Functional Analysis of the Three Major Types of Mammalian ABC Transporters” (PLoS ONE, 2011).

Assays:
[1] = test system: HCT-8 cells; experiment: Dye uptake flow cytometry MDR assay (MAF), HCT-8 cells; type: cell-based, human; conditions: for MAF value, CsA: probe with vs without CsA; for MAF value, CsA / MAF value, Nov / MAF value, Ver: mean ± SEM; for MAF value, MK571: probe with vs without MK571, mean ± SEM; for MAF value, Nov: probe with vs without Nov; for MAF value, Ver: probe with vs without Ver
Description: (§1) Detailed protocol for the MDR assay is available in the Instruction Manual for eFluxx-ID® Green or Gold Multi-Drug Resistance Assay Kit (ENZO Life Sciences, Inc., Farmingdale, NY). […] In order to exclude dead cells in the analyses, propidium iodide (PI) or 7-actinaminomycin D (7-AAD) solution was added to the cells during the last 5 min of incubation in some experiments. Experiments were performed using a FACS Calibur benchtop flow cytometer (BD Biosciences, San Jose, CA) equipped with a blue (488 nm) laser, and the signals were registered in the FITC (530/30 filter), PE (585/42 filter) and PerCP (670 LP filter) channels. eFluxx-ID® Green dye fluorescence was measured in the FL1/FITC channel, and eFluxx-ID® Gold dye fluorescence, in the FL2/PE channel. Data analysis was performed using FlowJo 8.8.2 software (Tree Star, Inc., Ashland, OR). All of the experiments were performed at least three times. Results were expressed as mean ± S.E. Statistical comparisons were made using an unpaired two-tailed Student's t-test. […] Additionally, HCT-8 cell line reported to overexpress both MDR1 and MRP transporters, [21] was tested. HCT-8, HCT-15, HepG2, HL-60 and HL-60/MX1 cells were grown on tissue culture dishes and on the day of assay were incubated with eFluxx-ID® Green and Gold probes with and without inhibitors according to the described dye uptake protocol (Materials and Methods) and analyzed by flow cytometry.

[2] = test system: CHO K1 cells; experiment: Dye uptake flow cytometry MDR assay (MAF / D-values), CHO K1 cells; type: cell-based, hamster; conditions: for D-values Post Inhibitor Treatment (compared to uninhibited cells), CsA / D-values Post Inhibitor Treatment (compared to uninhibited cells), FTC / D-values Post Inhibitor Treatment (compared to uninhibited cells), MK-571 / D-values Post Inhibitor Treatment (compared to uninhibited cells), Verapamil: CHO K1; for MAF value, Fumitremorgin C / MAF value, Probenecid / MAF value, Verapamil: CHO K1 cells, dye uptake protocol; for MAF value, Fumitremorgin C: probe with vs without fumitremorgin C; for MAF value, Probenecid: probe with vs without probenecid; for MAF value, Verapamil: probe with vs without verapamil
Description: (§2) Detailed protocol for the MDR assay is available in the Instruction Manual for eFluxx-ID® Green or Gold Multi-Drug Resistance Assay Kit (ENZO Life Sciences, Inc., Farmingdale, NY). Briefly, on the day of the assay, cells were collected, washed with PBS and incubated with or without MDR inhibitors in the presence of the eFluxx-ID® Green or Gold probes for 30 min at 37°C and analyzed immediately by flow cytometry. eFluxx-ID® Green or Gold probes are novel xanthene-based small molecule dyes developed for the detection of MDR activity in living cells. In order to exclude dead cells in the analyses, propidium iodide (PI) or 7-actinaminomycin D (7-AAD) solution was added to the cells during the last 5 min of incubation in some experiments.
(§3) To develop a minimal step assay procedure for the dye uptake protocol, three modifications of the protocol were investigated. One set of the cells was treated according to a general “no-wash” protocol (see Instruction Manual for the kit). In the second set of tubes, the reaction was stopped by rapid centrifugation (1 min) at relatively low speed (200×g). After washing with ice-cold PBS and discarding the supernatant, cells were re-suspended in 0.5 ml of ice-cold medium and kept on ice until flow cytometry analysis was performed. The third set of cells was simply spun down (1 min, 200×g) to remove the excess probe, resuspended in ice-cold medium and kept on ice until flow cytometry analysis was performed. eFluxx-ID® Green dye (ex/em 490/514 nm) fluorescence intensity was measured in the FL1/FITC (530/30 filter) channel, and eFluxx-ID® Gold dye (ex/em 530/555 nm) fluorescence intensity was monitored in the FL2/PE (585/42 filter) channel.
(§4) Experiments were performed using a FACS Calibur benchtop flow cytometer (BD Biosciences, San Jose, CA) equipped with a blue (488 nm) laser, and the signals were registered in the FITC (530/30 filter), PE (585/42 filter) and PerCP (670 LP filter) channels. eFluxx-ID® Green dye fluorescence was measured in the FL1/FITC channel, and eFluxx-ID® Gold dye fluorescence, in the FL2/PE channel. Data analysis was performed using FlowJo 8.8.2 software (Tree Star, Inc., Ashland, OR).
(§5) All of the experiments were performed at least three times. Results were expressed as mean ± S.E. Statistical comparisons were made using an unpaired two-tailed Student's t-test. A P value of <0.05 was considered significant. Flow cytometry data were analyzed by comparison of median fluorescence, by using Kolmogorov-Smirnov statistics (D-value) or by calculating MDR Activity Factor (MAF) values using the following formula: MAF = 100*((MFIinh−MFI0)/MFIinh), wherein MFIinh and MFI0 are the mean fluorescence intensity values measured in the presence and absence of inhibitor [7].

[3] = test system: A549 cells; experiment: Dye uptake flow cytometry MDR assay (MAF / D-values), A549 cells; type: cell-based, human; conditions: dye uptake protocol; for MAF value, Fumitremorgin C: probe with vs without fumitremorgin C; for MAF value, Probenecid: probe with vs without probenecid; for MAF value, Verapamil: probe with vs without verapamil
Description: as §2, §3, §4, §5

[4] = test system: HepG2 cells; experiment: Dye uptake flow cytometry MDR assay (MAF), HepG2 cells; type: cell-based, human
Description: as §1

[5] = test system: HeLa cells; experiment: Dye uptake flow cytometry MDR assay (MAF), HeLa cells; type: cell-based, human; conditions: dye uptake protocol; for MAF value, Fumitremorgin C: probe with vs without fumitremorgin C; for MAF value, Probenecid: probe with vs without probenecid; for MAF value, Verapamil: probe with vs without verapamil
Description: as §2, §3, §4, §5

[6] = test system: HCT-15 cells; experiment: Dye uptake flow cytometry MDR assay (MAF), HCT-15 cells; type: cell-based, human
Description: as §1

[7] = test system: HL-60 cells; experiment: Dye uptake flow cytometry MDR assay (MAF), HL-60 cells; type: cell-based, human
Description: as §1

[8] = test system: HL-60/MX1 cells; experiment: Dye uptake flow cytometry MDR assay (MAF), HL-60/MX1 cells; type: cell-based, human
Description: as §1

[9] = dual probe treatment eFluxx-ID Gold + CMFDA
[10] = triple probe treatment CMFDA + eFluxx-ID Gold + Pheophorbide A
[11] = probe with vs without CsA, mean ± SEM
[12] = probe with vs without MK571, mean ± SEM
[13] = probe with vs without Nov, mean ± SEM
[14] = probe with vs without Ver, mean ± SEM
[15] = dual probe treatment eFluxx-ID Gold + DiOC2(3)
[16] = triple probe treatment DiOC2(3) + eFluxx-ID Gold + Pheophorbide A
[17] = dual probe treatment eFluxx-ID Gold + Pheophorbide A
[18] = dual probe treatment eFluxx-ID Green + Pheophorbide A

| SMILES | MAF value, CsA [1] | MAF value, MK571 [1] | MAF value, Nov [1] | MAF value, Ver [1] | D-values Post Inhibitor Treatment (compared to uninhibited cells), CsA [2, 10] | D-values Post Inhibitor Treatment (compared to uninhibited cells), FTC [2, 10] | D-values Post Inhibitor Treatment (compared to uninhibited cells), MK-571 [2, 10] | D-values Post Inhibitor Treatment (compared to uninhibited cells), Verapamil [2, 10] | MAF value, Fumitremorgin C [2] | MAF value, Probenecid [2] | MAF value, Verapamil [2] | MAF value, Fumitremorgin C [3] | MAF value, Probenecid [3] | MAF value, Verapamil [3] | MAF value, Fumitremorgin C [5] | MAF value, Probenecid [5] | MAF value, Verapamil [5] | D-values Post Inhibitor Treatment (compared to uninhibited cells), CsA [2, 16] | D-values Post Inhibitor Treatment (compared to uninhibited cells), FTC [2, 16] | D-values Post Inhibitor Treatment (compared to uninhibited cells), MK-571 [2, 16] | also measured |
| --- | --- | --- | --- | --- | --- | --- | --- | --- | --- | --- | --- | --- | --- | --- | --- | --- | --- | --- | --- | --- | --- |
| CC(=O)Oc1ccc2c(c1)Oc1cc(OC(C)=O)ccc1C21OC(=O)c2cc(CCl)ccc21 [CMFDA, chloromethylfluorescein diacetate] | 43.0±3.2 | 39.2±3.6 | 0 | 21.2±3.2 | 0.47 | 0.14 | 0.89 | 0.10 | 0 | 56.9 | 34.3 | 20.7 | 27.1 | 16.6 | 11.4 | 9.0 | 7.6 | – | – | – | D-values Post Inhibitor Treatment (compared to uninhibited cells), CsA [2, 9]: 0.49; D-values Post Inhibitor Treatment (compared to uninhibited cells), FTC [2, 9]: 0.06; D-values Post Inhibitor Treatment (compared to uninhibited cells), MK-571 [2, 9]: 0.91; D-values Post Inhibitor Treatment (compared to uninhibited cells), Verapamil [2, 9]: 0.1; MAF value, CsA [4, 11]: 50.4±1.3; MAF value, MK571 [4, 12]: 52.2±3.8; MAF value, Nov [4, 13]: 7.0±1.7; MAF value, Ver [4, 14]: 12.8±1.3 |
| CCN1C(=CC=Cc2oc3ccccc3[n+]2CC)Oc2ccccc21.[I-] [DiOC2(3), 3,3′-diethyloxacarbocyanine iodide] | 24.7±0.9 | 9.8±1.2 | 0 | 19.1±3.7 | – | – | – | – | 0 | 2.4 | 86.6 | 0.9 | 1.0 | 4.2 | 0 | 0 | 0 | 0.98 | 0.11 | 0.13 | D-values Post Inhibitor Treatment (compared to uninhibited cells), CsA [2, 15]: 0.94; D-values Post Inhibitor Treatment (compared to uninhibited cells), FTC [2, 15]: 0.16; D-values Post Inhibitor Treatment (compared to uninhibited cells), MK-571 [2, 15]: 0.13; D-values Post Inhibitor Treatment (compared to uninhibited cells), Verapamil [2, 15]: 0.96; D-values Post Inhibitor Treatment (compared to uninhibited cells), Verapamil [2, 16]: 0.98; MAF value, CsA [6, 11]: 71.0±5.0; MAF value, MK571 [6, 12]: 4.3±2.2; MAF value, Nov [6, 13]: 0; MAF value, Ver [6, 14]: 69.3±4.3 |
| C=Cc1c(C)c2cc3nc(c4c5[nH]c(cc6nc(cc1[nH]2)C(C)=C6CC)c(C)c5C(=O)[C@@H]4C(=O)OC)[C@@H](CCC(=O)O)[C@@H]3C [Pheophorbide A, pheophorbide A] | – | – | – | – | 0.20 | 0.27 | 0.09 | 0.18 | 22.3 | 8.4 | 0.7 | 36.0 | 14.2 | 4.0 | 5.8 | 0.5 | 0 | 0.4 | 0.41 | 0.13 | MAF value, CsA [7, 11]: 6.5±1.7; MAF value, MK571 [7, 12]: 7.6±1.6; MAF value, Nov [7, 13]: 8.5±1.4; MAF value, Ver [7, 14]: 6.8±0.6; D-values Post Inhibitor Treatment (compared to uninhibited cells), CsA [2, 17]: 0.25; D-values Post Inhibitor Treatment (compared to uninhibited cells), FTC [2, 17]: 0.34; D-values Post Inhibitor Treatment (compared to uninhibited cells), MK-571 [2, 17]: 0.14; D-values Post Inhibitor Treatment (compared to uninhibited cells), Verapamil [2, 17]: 0.11; D-values Post Inhibitor Treatment (compared to uninhibited cells), CsA [2, 18]: 0.25; D-values Post Inhibitor Treatment (compared to uninhibited cells), FTC [2, 18]: 0.33; D-values Post Inhibitor Treatment (compared to uninhibited cells), MK-571 [2, 18]: 0.15; D-values Post Inhibitor Treatment (compared to uninhibited cells), Verapamil [2, 18]: 0.14; D-values Post Inhibitor Treatment (compared to uninhibited cells), Verapamil [2, 16]: 0.17; MAF value, CsA [8, 11]: 22.5±3.0; MAF value, MK571 [8, 12]: 10.2±3.7; MAF value, Nov [8, 13]: 23.4±0.8; MAF value, Ver [8, 14]: 7.6±3.8 |
